Reference: patent US20240083861A1, “HSD17B13 INHIBITORS AND USES THEREOF” (FL2022-001, Inc., priority 2020, published 2024)
pIC50: −log10 of the molar value. Where a name gives a salt, the structure may show the parent alone.

Each molecule was assayed against T1, Recombinant human HSD17B13 enzyme (Homo sapiens, UniProt Q7Z5P4) (assay: HSD17b13 NAD(P)H-Glo biochemical assay). Settings: 50 uM estradiol, 1 mM NAD+, NAD(P)H-Glo luminescence; read-out: HSD17β13 IC50.
T1 sequence (Q7Z5P4 20-300): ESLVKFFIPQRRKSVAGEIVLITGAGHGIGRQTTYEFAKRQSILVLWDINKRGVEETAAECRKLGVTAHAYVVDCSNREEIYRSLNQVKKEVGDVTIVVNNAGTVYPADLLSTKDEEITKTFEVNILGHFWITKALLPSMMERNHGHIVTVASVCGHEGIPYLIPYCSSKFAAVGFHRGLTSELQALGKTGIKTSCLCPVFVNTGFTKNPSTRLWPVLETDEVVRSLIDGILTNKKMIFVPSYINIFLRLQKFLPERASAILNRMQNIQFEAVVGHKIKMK
How it was run: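 Luminescent NAD(P)H-Glo read-out, taken after 1 hour at RT, measured cofactor reduction. Substrate and cofactor were estradiol at 50 uM and NAD+ at 1 mM final, reacted with the recombinant human enzyme for 3 hours at 37° C in 20 mM Tris pH7.4, 0.002% Tween-20, 0.02% BSA. Compound was pre-incubated with enzyme for 20 minutes at RT.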

| Structure (SMILES) | pIC50 |
| --- | --- |
| C[C@@H]1CN(C(=O)c2ccccc2)CCN1c1ncc2c(-c3cc(C(F)(F)F)c(F)c(O)c3F)nn(C)c2n1 [Compound 18.120, (R)-(4-(3-(2,4-Difluoro-3-hydroxy-5-(trifluoromethyl)phenyl)-1-methyl-1H-pyrazolo[3,4-d]pyrimidin-6-yl)-3-methylpiperazin-1-y1)(phenyl)methanone] | > 7.00 |
| Cn1nc(-c2cc(C(F)(F)F)c(F)c(O)c2F)c2cnc(N3CCN(C(=O)c4ccccn4)CC3)nc21 [Compound 18.121, (4-(3-(2,4-Difluoro-3-hydroxy-5-(trifluoromethyl)phenyl)-1-methyl-1H-pyrazolo[3,4-d]pyrimidin-6-yl)piperazin-1-yl)(pyridin-2-yl)methanone] | 6.00 to 7.00 |
| Cn1nc(-c2cc(C(F)(F)F)c(F)c(O)c2F)c2cnc(N3CCN(C(=O)c4ccncc4)CC3)nc21 [Compound 18.122, (4-(3-(2,4-Difluoro-3-hydroxy-5-(trifluoromethyl)phenyl)-1-methyl-1H-pyrazolo[3,4-d]pyrimidin-6-y1)piperazin-1-yl)(pyridin-4-yl)methanone] | 6.00 to 7.00 |
| Cn1nc(-c2cc(C(F)(F)F)c(F)c(O)c2F)c2cnc(N3CCN(C(=O)C4CC4)CC3)nc21 [Compound 18.123, Cyclopropyl(4-(3-(2,4-difluoro-3-hydroxy-5-(trifluoromethyl)phenyl)-1-methyl-1H-pyrazolo[3,4-d]pyrimidin-6-y1)piperazin-1-yl)methanone] | > 7.00 |
| Cn1nc(-c2cc(C(F)(F)F)c(F)c(O)c2F)c2cnc(N(Cc3ccccc3)C3CCC3)nc21 [Compound 18.124, 3-(6-(Benzyl(cyclobutyl)amino)-1-methyl-1H-pyrazolo[3,4-d]pyrimidin-3-y1)-2,6-difluoro-5-(trifluoromethyl)phenol] | > 7.00 |
| Cn1nc(-c2cc(C(F)(F)F)c(F)c(O)c2F)c2cnc(N3CCN(C(=O)NC4CCCCC4)CC3)nc21 [Compound 18.125, N-Cyclohexyl-4-(3-(2,4-difluoro-3-hydroxy-5-(trifluoromethyl)phenyl)-1-methyl-1H-pyrazolo[3,4-d]pyrimidin-6-y1)piperazine-1-carboxamide] | > 7.00 |
| Cn1nc(-c2cc(C(F)(F)F)c(F)c(O)c2F)c2cnc(N3CCN(C(=O)CN4CCOCC4)CC3)nc21 [Compound 18.126, 1-(4-(3-(2,4-Difluoro-3-hydroxy-5-(trifluoromethyl)phenyl)-1-methyl-1H-pyrazolo[3,4-d]pyrimidin-6-y1)piperazin-1-yl)-2-morpholinoethan-1-one] | 6.00 to 7.00 |
| Cn1nc(-c2cc(C(F)(F)F)c(F)c(O)c2F)c2cnc(N3CCN(C(=O)C4CCOCC4)CC3)nc21 [Compound 18.127, (4-(3-(2,4-Difluoro-3-hydroxy-5-(trifluoromethyl)phenyl)-1-methyl-1H-pyrazolo[3,4-d]pyrimidin-6-yl)piperazin-1-yl)(tetrahydro-2H-pyran-4-yl)methanone] | 6.00 to 7.00 |
| Cn1nc(-c2cc(C(F)(F)F)c(F)c(O)c2F)c2cnc(N3CCN(C(=O)c4cccnc4)CC3)nc21 [Compound 18.128, (4-(3-(2,4-Difluoro-3-hydroxy-5-(trifluoromethyl)phenyl)-1-methyl-1H-pyrazolo[3,4-d]pyrimidin-6-yl)piperazin-1-yl)(pyridin-3-yl)methanone] | 6.00 to 7.00 |

The next lines start with the values.

| pIC50 | Structure (SMILES) |
| --- | --- |
| > 7.00 | CC(=O)N1CCN(c2ncc3c(-c4cc(C(F)(F)F)c(F)c(O)c4F)nn(C)c3n2)C2(CC2)C1 [Compound 18.129, 1-(4-(3-(2,4-Difluoro-3-hydroxy-5-(trifluoromethyl)phenyl)-1-methyl-1H-pyrazolo[3,4-d]pyrimidin-6-yl)-4,7-diazaspiro[2.5]octan-7-yl)ethan-1-one] |
| > 7.00 | Cn1nc(-c2cc(C(F)(F)F)c(F)c(O)c2F)c2cnc(N3CCOCC3C3CCCCC3)nc21 (stereo not drawn) [Compound 18.130, 3-(6-(3-Cyclohexylmorpholino)-1-methyl-1H-pyrazolo[3,4-d]pyrimidin-3-y1)-2,6-difluoro-5-(trifluoromethyl)phenol] |
| 6.00 to 7.00 | Cn1nc(-c2cc(C(F)(F)F)c(F)c(O)c2F)c2cnc(N3CCO[C@@H](CO)C3)nc21 [Compound 18.131, (R)-2,6-Difluoro-3-(6-(2-(hydroxymethyl)morpholino)-1-methyl-1H-pyrazolo[3,4-d]pyrimidin-3-y1)-5-(trifluoromethyl)phenol] |
| > 7.00 | Cn1nc(-c2cc(C(F)(F)F)c(F)c(O)c2F)c2cnc(N3CCOCC3)nc21 [Compound 18.132, 2,6-Difluoro-3-(1-methyl-6-morpholino-1H-pyrazolo[3,4-d]pyrimidin-3-y1)-5-(trifluoromethyl)phenol] |
| 6.00 to 7.00 | CN(c1ncc2c(-c3cc(C(F)(F)F)c(F)c(O)c3F)nn(C)c2n1)C1CCNCC1 [Compound 19, 2,6-Difluoro-3-(1-methyl-6-(methyl(piperidin-4-yl)amino)-1H-pyrazolo[3,4-d]pyrimidin-3-y1)-5-(trifluoromethyl)phenol] |
| > 7.00 | CC(=O)N1CCC(N(C)c2ncc3c(-c4cc(C(F)(F)F)c(F)c(O)c4F)nn(C)c3n2)CC1 [Compound 19.01, 1-(4-((3-(2,4-Difluoro-3-hydroxy-5-(trifluoromethyl)phenyl)-1-methyl-1H-pyrazolo[3,4-d]pyrimidin-6-y1)(methyl)amino)piperidin-1-yl)ethan-1-one] |
| > 7.00 | Cn1nc(-c2cc(C(F)(F)F)c(F)c(O)c2F)c2cnc(N(Cc3ccccc3)C3CCOCC3)nc21 [Compound 19.02, 3-(6-(Benzyl(tetrahydro-2H-pyran-4-yl)amino)-1-methyl-1H-pyrazolo[3,4-d]pyrimidin-3-y1)-2,6-difluoro-5-(trifluoromethyl)phenol] |
| > 7.00 | Cn1nc(-c2cc(C(F)(F)F)c(F)c(O)c2F)c2cnc(N3CCNC4(CCC4)C3)nc21 [Compound 20, 2,6-Difluoro-3-(1-methyl-6-(5,8-diazaspiro[3.5]nonan-8-yl)-1H-pyrazolo[3,4-d]pyrimidin-3-y1)-5-(trifluoromethyl)phenol HCl salt] |
| > 7.00 | CNC(=O)N1CCN(c2ncc3c(-c4cc(C(F)(F)F)c(F)c(O)c4F)nn(C)c3n2)CC12CCC2 [Compound 20.01, 8-(3-(2,4-Difluoro-3-hydroxy-5-(trifluoromethyl)phenyl)-1-methyl-1H-pyrazolo[3,4-d]pyrimidin-6-yl)-N-methyl-5,8-diazaspiro[3.5]nonane-5-carboxamide] |
| > 7.00 | CN(C)C(=O)N1CCN(c2ncc3c(-c4cc(C(F)(F)F)c(F)c(O)c4F)nn(C)c3n2)CC12CCC2 [Compound 20.02, 8-(3-(2,4-Difluoro-3-hydroxy-5-(trifluoromethyl)phenyl)-1-methyl-1H-pyrazolo[3,4-d]pyrimidin-6-yl)-N,N-dimethy1-5,8-diazaspiro[3.5]nonane-5-carboxamide] |
| > 7.00 | COC(=O)N1CCN(c2ncc3c(-c4cc(C(F)(F)F)c(F)c(O)c4F)nn(C)c3n2)CC12CCC2 [Compound 20.03, Methyl 8-(3-(2,4-difluoro-3-hydroxy-5-(trifluoromethyl)phenyl)-1-methyl-1H-pyrazolo[3,4-d]pyrimidin-6-yl)-5,8-diazaspiro[3.5]nonane-5-carboxylate] |
| > 7.00 | C[C@@H]1CN(C(=O)Nc2ccccc2)CCN1c1cc2c(cn1)c(-c1cc(C(F)(F)F)c(F)c(O)c1F)nn2C [Compound 21, (R)-4-(3-(2,4-Difluoro-3-hydroxy-5-(trifluoromethyl)phenyl)-1-methyl-1H-pyrazolo[4,3-c]pyridin-6-yl)-3-methyl-N-phenylpiperazine-1-carboxamide] |
